How the values were obtained:
Test in all cases: Post-emergence efficacy, glasshouse spray test
Type in all cases: in vivo
Conditions in all cases: evaluated after 13 days
[1] = system: Amaranthus palmeri (AMAPA)
How it was run: (§1)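 Compound formulated in acetone/IF50 and diluted into 0.25% or 1% Empicol ESC70 with 1% ammonium sulphate was sprayed on glasshouse seedlings 14 days after sowing. Growth continued at 24/16 °C, 14 h light, 65% humidity with twice-daily watering; damage (0–100) scored on day 13.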

[2] = system: Chenopodium album (CHEAL)
How it was run: as §1

[3] = system: Digitaria sanguinalis (DIGSA)
How it was run: as §1

[4] = system: Echinochloa crus-galli (ECHCG)
How it was run: as §1

Eleusine indica (ELEIN) = system: Eleusine indica (ELEIN)
How it was run: as §1

[5] = system: Euphorbia heterophylla (EPHHL)
How it was run: as §1

[6] = system: Ipomoea hederacea (IPOHE)
How it was run: as §1

Lolium perenne (LOLPE) = system: Lolium perenne (LOLPE)
How it was run: as §1

Setaria faberi (SETFA) = system: Setaria faberi (SETFA)
How it was run: as §1

[7] = Amaranthus palmeri, post-emergence, 312 h, application rate 1000 g/Ha, read-out: Control of weed species AMAPA after post-emergence application (100=total damage to plant; 0=no damage to plant)
[8] = Chenopodium album, post-emergence, 312 h, application rate 1000 g/Ha, read-out: Control of weed species CHEAL after post-emergence application (100=total damage to plant; 0=no damage to plant)
[9] = Digitaria sanguinalis, post-emergence, 312 h, application rate 1000 g/Ha, read-out: Control of weed species DIGSA after post-emergence application (100=total damage to plant; 0=no damage to plant)
[10] = Echinochloa crus-galli, post-emergence, 312 h, application rate 1000 g/Ha, read-out: Control of weed species ECHCG after post-emergence application (100=total damage to plant; 0=no damage to plant)
[11] = Eleusine indica, post-emergence, 312 h, application rate 1000 g/Ha, read-out: Control of weed species ELEIN after post-emergence application (100=total damage to plant; 0=no damage to plant)
[12] = Euphorbia heterophylla, post-emergence, 312 h, application rate 1000 g/Ha, read-out: Control of weed species EPHHL after post-emergence application (100=total damage to plant; 0=no damage to plant)
[13] = Ipomoea hederacea, post-emergence, 312 h, application rate 1000 g/Ha, read-out: Control of weed species IPOHE after post-emergence application (100=total damage to plant; 0=no damage to plant)
[14] = Lolium perenne, post-emergence, 312 h, application rate 1000 g/Ha, read-out: Control of weed species LOLPE after post-emergence application (100=total damage to plant; 0=no damage to plant)
[15] = Setaria faberi, post-emergence, 312 h, application rate 1000 g/Ha, read-out: Control of weed species SETFA after post-emergence application (100=total damage to plant; 0=no damage to plant)

SMILES	pest or weed control at 1000 g/ha [1, 7] [%]	pest or weed control at 1000 g/ha [2, 8] [%]	pest or weed control at 1000 g/ha [3, 9] [%]	pest or weed control at 1000 g/ha [4, 10] [%]	pest or weed control at 1000 g/ha (Eleusine indica (ELEIN); [11]) [%]	pest or weed control at 1000 g/ha [5, 12] [%]	pest or weed control at 1000 g/ha [6, 13] [%]	pest or weed control at 1000 g/ha (Lolium perenne (LOLPE); [14]) [%]	pest or weed control at 1000 g/ha (Setaria faberi (SETFA); [15]) [%]	other results
Cc1ccc2n[n+](CCS(=O)(=O)[O-])ccc2c1 [Compound A32]	90	90	70	80	90	90	70	30	60	–
COc1ccc2n[n+](CCS(=O)(=O)[O-])ccc2c1 [Compound A37]	0	0	60	50	60	20	10	20	40	–
COc1c[n+](CCS(=O)(=O)[O-])nc2ccccc12 [Compound A38]	20	40	20	30	10	30	30	10	10	–
O=S(=O)([O-])CCC[n+]1cc(C(Cl)Cl)c2ccccc2n1 [Compound A39, 3-[4-(dichloromethyl)cinnolin-2-ium-2-yl]propane-1-sulfonate]	10	20	10	10	10	40	30	0	0	–
O=S(=O)([O-])CCC[n+]1cc(C(Cl)(Cl)Cl)c2ccccc2n1 [Compound A40]	–	–	–	–	–	–	–	–	–	pest or weed control at 500 g/ha ([1]; Amaranthus palmeri, post-emergence, 312 h, application rate 500 g/Ha, read-out: Control of weed species AMAPA after post-emergence application (100=total damage to plant; 0=no damage to plant)): 50%; pest or weed control at 500 g/ha ([2]; Chenopodium album, post-emergence, 312 h, application rate 500 g/Ha, read-out: Control of weed species CHEAL after post-emergence application (100=total damage to plant; 0=no damage to plant)): 50%; pest or weed control at 500 g/ha ([3]; Digitaria sanguinalis, post-emergence, 312 h, application rate 500 g/Ha, read-out: Control of weed species DIGSA after post-emergence application (100=total damage to plant; 0=no damage to plant)): 10%; pest or weed control at 500 g/ha ([4]; Echinochloa crus-galli, post-emergence, 312 h, application rate 500 g/Ha, read-out: Control of weed species ECHCG after post-emergence application (100=total damage to plant; 0=no damage to plant)): 30%; pest or weed control at 500 g/ha (Eleusine indica (ELEIN); Eleusine indica, post-emergence, 312 h, application rate 500 g/Ha, read-out: Control of weed species ELEIN after post-emergence application (100=total damage to plant; 0=no damage to plant)): 20%; pest or weed control at 500 g/ha ([5]; Euphorbia heterophylla, post-emergence, 312 h, application rate 500 g/Ha, read-out: Control of weed species EPHHL after post-emergence application (100=total damage to plant; 0=no damage to plant)): 40%; pest or weed control at 500 g/ha ([6]; Ipomoea hederacea, post-emergence, 312 h, application rate 500 g/Ha, read-out: Control of weed species IPOHE after post-emergence application (100=total damage to plant; 0=no damage to plant)): 50%; pest or weed control at 500 g/ha (Lolium perenne (LOLPE); Lolium perenne, post-emergence, 312 h, application rate 500 g/Ha, read-out: Control of weed species LOLPE after post-emergence application (100=total damage to plant; 0=no damage to plant)): 0%; pest or weed control at 500 g/ha (Setaria faberi (SETFA); Setaria faberi, post-emergence, 312 h, application rate 500 g/Ha, read-out: Control of weed species SETFA after post-emergence application (100=total damage to plant; 0=no damage to plant)): 0%
O=S(=O)([O-])NCC[n+]1ccc2ccccc2n1 [Compound A41]	100	100	80	30	100	100	80	70	90	–
O=S(=O)(O)CC[n+]1ccc2cccc(I)c2n1 [Compound A42, 2-(8-iodocinnolin-2-ium-2-yl)ethanesulfonic acid 2,2,2-trifluoroacetate]	90	50	40	20	80	50	70	10	50	–
CC(CC[n+]1ccc2ccccc2n1)S(=O)(=O)[O-] (stereo not drawn) [Compound A43, 4-cinnolin-2-ium-2-ylbutane-2-sulfonate]	100	100	80	70	100	100	80	40	70	–
CSc1c[n+](CCS(=O)(=O)O)nc2ccccc12.O=C([O-])C(F)(F)F [Compound A44]	–	–	–	–	–	–	–	–	–	Control of weed species AMAPA after post-emergence application (100=total damage to plant; 0=no damage to plant) ([1]; application rate 1000 g/Ha): 30; Control of weed species CHEAL after post-emergence application (100=total damage to plant; 0=no damage to plant) ([2]; application rate 1000 g/Ha): 30; Control of weed species DIGSA after post-emergence application (100=total damage to plant; 0=no damage to plant) ([3]; application rate 1000 g/Ha): 30; Control of weed species ECHCG after post-emergence application (100=total damage to plant; 0=no damage to plant) ([4]; application rate 1000 g/Ha): 10; Control of weed species ELEIN after post-emergence application (100=total damage to plant; 0=no damage to plant) (Eleusine indica (ELEIN); application rate 1000 g/Ha): 70; Control of weed species EPHHL after post-emergence application (100=total damage to plant; 0=no damage to plant) ([5]; application rate 1000 g/Ha): 90; Control of weed species IPOHE after post-emergence application (100=total damage to plant; 0=no damage to plant) ([6]; application rate 1000 g/Ha): 20; Control of weed species LOLPE after post-emergence application (100=total damage to plant; 0=no damage to plant) (Lolium perenne (LOLPE); application rate 1000 g/Ha): 0; Control of weed species SETFA after post-emergence application (100=total damage to plant; 0=no damage to plant) (Setaria faberi (SETFA); application rate 1000 g/Ha): 30
C[C@@H](C[n+]1ccc2ccccc2n1)NS(=O)(=O)[O-] [Compound A45, N-[(1S)-2-cinnolin-2-ium-2-yl-1-methyl-ethyl]sulfamate]	100	80	80	40	100	100	60	60	80	–
C[C@H](C[n+]1ccc2ccccc2n1)NS(=O)(=O)[O-] [Compound A46]	100	70	70	30	90	100	70	40	60	–
O=S(=O)([O-])N1CCC[C@H]1C[n+]1ccc2ccccc2n1 [Compound A47]	100	60	90	30	90	60	20	10	40	–
O=S(=O)([O-])C[n+]1ccc2ccccc2n1 [Compound A48, cinnolin-2-ium-2-ylmethanesulfonate]	100	80	60	40	90	100	100	70	70	–
C[C@H](CNS(=O)(=O)[O-])[n+]1ccc2ccccc2n1 [Compound A49]	100	90	70	60	90	90	80	50	60	–

Source: patent US20220046923A1, “HERBICIDAL CINNOLINIUM COMPOUNDS” (SYNGENTA CROP PROTECTION AG, priority 2018, published 2022)
